# Calls of active or inactive are those of the source. No cut-off for these calls is given here.
# Assays:
# MDA-MB-231 [1] = assay: Induction of cell cycle arrest in human MDA-MB-231 cells assessed as accumulation of cells at G2/M phase at 25 uM incubated for 48 hrs by PI staining based flow cytometry (reference value: 29.42 to 32.08%); type: functional
# MDA-MB-231 [2] = assay: Induction of apoptosis in human MDA-MB-231 cells assessed as necrotic cells at 5 uM incubated for 48 hrs by AnnexinV-FITC/PI staining based flow cytometry (reference value: 1.79 to 2.53%); type: functional
# MDA-MB-453 = assay: Antiproliferative activity against human MDA-MB-453 cells assessed as reduction in cell growth incubated for 72 hrs by MTT assay; details: MDA-MB-453, 72 h
# MDA-MB-231 [3] = assay: Induction of cell cycle arrest in human MDA-MB-231 cells assessed as accumulation of cells at G2/M phase at 1 uM incubated for 48 hrs by PI staining based flow cytometry (reference value: 29.42 to 32.08%); type: functional
# MDA-MB-231 [4] = assay: Induction of cell cycle arrest in human MDA-MB-231 cells assessed as accumulation of cells at G0/G1 phase at 25 uM incubated for 48 hrs by PI staining based flow cytometry (reference value: 55.36 to 55.82%); type: functional
# MDA-MB-231 [5] = assay: Induction of apoptosis in human MDA-MB-231 cells assessed as necrotic cells at 25 uM incubated for 48 hrs by AnnexinV-FITC/PI staining based flow cytometry (reference value: 1.79 to 2.53%); type: functional
# MDA-MB-231 [6] = assay: Induction of cell cycle arrest in human MDA-MB-231 cells assessed as accumulation of cells at G2/M phase at 2.5 uM incubated for 48 hrs by PI staining based flow cytometry (reference value: 29.42 to 32.08%); type: functional
# MDA-MB-231 [7] = assay: Induction of cell cycle arrest in human MDA-MB-231 cells assessed as accumulation of cells at G0/G1 phase at 1 uM incubated for 48 hrs by PI staining based flow cytometry (reference value: 55.36 to 55.82%); type: functional
# MDA-MB-231 [8] = assay: Induction of apoptosis in human MDA-MB-231 cells assessed as early apoptotic cells at 25 uM incubated for 48 hrs by AnnexinV-FITC/PI staining based flow cytometry (reference value: 1.6 to 2.41%); type: functional
# [9] = target: T1, Hepatocyte growth factor receptor (Homo sapiens, UniProt P08581); assay: Inhibition of c-Met (unknown origin) using Poly(Glu:Tyr)(4:1) and ATP as substrate incubated for 45 mins by Kinase-Glo Max reagent based luminescence analysis
# T1 sequence (P08581 whole entry): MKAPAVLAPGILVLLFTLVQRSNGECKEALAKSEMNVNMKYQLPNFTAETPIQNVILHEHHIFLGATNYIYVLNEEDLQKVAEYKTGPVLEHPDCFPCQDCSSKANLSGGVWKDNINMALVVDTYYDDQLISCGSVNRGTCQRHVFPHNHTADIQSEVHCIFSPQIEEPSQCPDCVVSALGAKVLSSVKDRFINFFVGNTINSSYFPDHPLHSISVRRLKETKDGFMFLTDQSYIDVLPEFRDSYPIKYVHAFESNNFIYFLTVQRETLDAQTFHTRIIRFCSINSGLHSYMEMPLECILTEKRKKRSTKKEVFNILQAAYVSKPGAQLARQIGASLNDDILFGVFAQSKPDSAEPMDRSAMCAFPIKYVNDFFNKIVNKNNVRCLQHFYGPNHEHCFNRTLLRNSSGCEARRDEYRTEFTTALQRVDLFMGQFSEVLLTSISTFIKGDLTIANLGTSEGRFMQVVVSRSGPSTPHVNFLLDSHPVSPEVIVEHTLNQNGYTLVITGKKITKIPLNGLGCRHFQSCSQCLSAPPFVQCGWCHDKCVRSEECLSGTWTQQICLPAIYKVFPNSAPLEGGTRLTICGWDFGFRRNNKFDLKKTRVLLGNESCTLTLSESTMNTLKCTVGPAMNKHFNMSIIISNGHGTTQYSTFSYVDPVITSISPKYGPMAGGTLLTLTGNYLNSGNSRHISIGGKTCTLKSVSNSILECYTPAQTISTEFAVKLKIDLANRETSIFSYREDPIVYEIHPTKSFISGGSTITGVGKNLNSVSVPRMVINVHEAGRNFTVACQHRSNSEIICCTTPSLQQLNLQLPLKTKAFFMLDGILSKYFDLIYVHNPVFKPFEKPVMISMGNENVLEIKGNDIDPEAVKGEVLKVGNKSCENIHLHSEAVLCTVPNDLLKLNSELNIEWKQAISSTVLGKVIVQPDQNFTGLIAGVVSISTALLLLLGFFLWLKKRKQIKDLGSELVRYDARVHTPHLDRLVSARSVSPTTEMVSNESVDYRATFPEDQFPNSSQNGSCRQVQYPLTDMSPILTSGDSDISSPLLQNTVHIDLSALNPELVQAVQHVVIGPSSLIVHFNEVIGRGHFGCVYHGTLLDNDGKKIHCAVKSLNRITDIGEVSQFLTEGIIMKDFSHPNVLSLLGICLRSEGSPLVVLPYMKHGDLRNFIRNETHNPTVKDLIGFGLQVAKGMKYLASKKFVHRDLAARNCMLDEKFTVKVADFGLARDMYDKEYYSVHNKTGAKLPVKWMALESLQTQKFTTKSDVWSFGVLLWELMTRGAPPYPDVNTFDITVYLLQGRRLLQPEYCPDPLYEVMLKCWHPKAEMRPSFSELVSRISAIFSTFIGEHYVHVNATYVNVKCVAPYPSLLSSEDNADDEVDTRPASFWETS
# MDA-MB-231 [10] = assay: Inhibition of colony formation in human MDA-MB-231 cells at 1 to 25 uM incubated for 7 days by crystal violet staining based analysis; type: functional, cell-based; details: dose 1-25 µM, time 7.0 day
# MDA-MB-231 [11] = assay: Antiproliferative activity against human MDA-MB-231 cells assessed as reduction in cell growth incubated for 72 hrs by MTT assay; details: MDA-MB-231, 72 h
# MDA-MB-231 [12] = assay: Induction of cell cycle arrest in human MDA-MB-231 cells assessed as accumulation of cells at S phase at 25 uM incubated for 48 hrs by PI staining based flow cytometry (reference value: 12.56 to 14.76%); type: functional
# MDA-MB-231 [13] = assay: Induction of apoptosis in human MDA-MB-231 cells assessed as necrotic cells at 10 uM incubated for 48 hrs by AnnexinV-FITC/PI staining based flow cytometry (reference value: 1.79 to 2.53%); type: functional
# [14] = Cytotoxicity against human MCF-10A cells assessed as reduction in cell viability incubated for 72 hrs by MTT assay; type: toxicity, cell-based
# MDA-MB-231 [15] = assay: Induction of cell cycle arrest in human MDA-MB-231 cells assessed as accumulation of cells at S phase at 10 uM incubated for 48 hrs by PI staining based flow cytometry (reference value: 12.56 to 14.76%); type: functional
# MDA-MB-468 = assay: Antiproliferative activity against human MDA-MB-468 cells assessed as reduction in cell growth incubated for 72 hrs by MTT assay; details: MDA-MB-468, 72 h
# MDA-MB-231 [16] = assay: Induction of cell cycle arrest in human MDA-MB-231 cells assessed as accumulation of cells at G0/G1 phase at 2.5 uM incubated for 48 hrs by PI staining based flow cytometry (reference value: 55.36 to 55.82%); type: functional
# MDA-MB-231 [17] = assay: Induction of apoptosis in human MDA-MB-231 cells assessed as early apoptotic cells at 10 uM incubated for 48 hrs by AnnexinV-FITC/PI staining based flow cytometry (reference value: 1.6 to 2.41%); type: functional
# MDA-MB-231 [18] = assay: Induction of apoptosis in human MDA-MB-231 cells assessed as upregulation of cleaved caspase 7 level at 1 to 25 uM incubated for 48 hrs by western blot analysis; type: functional, cell-based; details: dose 1-25 µM
# MDA-MB-231 [19] = assay: Induction of apoptosis in human MDA-MB-231 cells assessed as early apoptotic cells at 5 uM incubated for 48 hrs by AnnexinV-FITC/PI staining based flow cytometry (reference value: 1.6 to 2.41%); type: functional
# MDA-MB-231 [20] = assay: Anti-migration activity in human MDA-MB-231 cells assessed as inhibition of cell invasion incubated for 72 hrs by Transwell assay; type: functional, cell-based; details: dose 1-25 µM
# MDA-MB-231 [21] = assay: Induction of apoptosis in human MDA-MB-231 cells assessed as viable cells at 2.5 uM incubated for 48 hrs by AnnexinV-FITC/PI staining based flow cytometry (reference value: 91.22 to 92.84%); type: functional; details: read-out: Activity
# MDA-MB-231 [22] = assay: Induction of cell cycle arrest in human MDA-MB-231 cells assessed as accumulation of cells at S phase at 1 uM incubated for 48 hrs by PI staining based flow cytometry (reference value: 12.56 to 14.76%); type: functional
# MDA-MB-231 [23] = assay: Induction of apoptosis in human MDA-MB-231 cells assessed as early apoptotic cells at 2.5 uM incubated for 48 hrs by AnnexinV-FITC/PI staining based flow cytometry (reference value: 1.6 to 2.41%); type: functional
# [24] = target: T1, Hepatocyte growth factor receptor; assay: Inhibition of c-Met in human MDA-MB-231 cells assessed as inhibition of ERK phosphorylation incubated for 48 hrs by western blot analysis; type: cell-based; details: dose 1-25 µM
# [25] = target: T1, Hepatocyte growth factor receptor; assay: Inhibition of c-Met in human MDA-MB-231 cells assessed as inhibition of Akt phosphorylation at Ser473 residue incubated for 48 hrs by western blot analysis; type: cell-based; details: dose 1-25 µM
# MDA-MB-231 [26] = assay: Induction of apoptosis in human MDA-MB-231 cells assessed as late apoptotic cells at 10 uM incubated for 48 hrs by AnnexinV-FITC/PI staining based flow cytometry (reference value: 3.77 to 3.84%); type: functional
# [27] = target: T1, Hepatocyte growth factor receptor; assay: Inhibition of c-Met in human MDA-MB-231 cells assessed as inhibition of Akt phosphorylation at […] residue incubated for 48 hrs by western blot analysis; type: cell-based; details: dose 1-25 µM
# MDA-MB-231 [28] = assay: Induction of apoptosis in human MDA-MB-231 cells assessed as upregulation of cleaved caspase 8 level at 1 to 25 uM incubated for 48 hrs by western blot analysis; type: functional, cell-based; details: dose 1-25 µM
# MDA-MB-231 [29] = assay: Induction of cell cycle arrest in human MDA-MB-231 cells assessed as accumulation of cells at S phase at 2.5 uM incubated for 48 hrs by PI staining based flow cytometry (reference value: 12.56 to 14.76%); type: functional
compound,measurement,setting,value
CC(c1ccc2ncccc2c1)n1nnc2ncc(N3CCN(Cc4ccc(/C=C/C(=O)Nc5ccccc5N)cc4)CC3)nc21 (stereo unspecified),Activity,MDA-MB-231 [1],10.57%
same,Activity,MDA-MB-231 [2],4.59%
same,IC50,MDA-MB-453,5.47 µM
same,Activity,MDA-MB-231 [3],27.08%
same,Activity,MDA-MB-231 [4],83.37%
same,Activity,MDA-MB-231 [5],1.42%
same,Activity,MDA-MB-231 [6],23.33%
same,Activity,MDA-MB-231 [7],65.34%
same,Activity,MDA-MB-231 [8],3.51%
same,IC50,[9],0.0289 µM
same,inhibition,MDA-MB-231 [10],Dose-Dependent Effect
same,IC50,MDA-MB-231 [11],3.57 µM
same,Activity,MDA-MB-231 [12],6.06%
same,Activity,MDA-MB-231 [13],1.67%
same,IC50 at 72 h,[14],> 25 µM
same,Activity,MDA-MB-231 [15],8.21%
same,IC50,MDA-MB-468,1.25 µM
same,Activity,MDA-MB-231 [16],67.14%
same,Activity,MDA-MB-231 [17],4.56%
same,Activity,MDA-MB-231 [18],Active
same,Activity,MDA-MB-231 [19],3.1%
same,Activity,MDA-MB-231 [20],Dose-Dependent Effect
same,viability at 2.5 µM,MDA-MB-231 [21],84.3%
same,Activity,MDA-MB-231 [22],7.57%
same,Activity,MDA-MB-231 [23],4.92%
same,inhibition,[24],Dose-Dependent Effect
same,inhibition,[25],Dose-Dependent Effect
same,Activity,MDA-MB-231 [26],10.69%
same,inhibition,[27],Dose-Dependent Effect
same,Activity,MDA-MB-231 [28],Active
same,Activity,MDA-MB-231 [29],9.53%
